Results published in patent US10526327B2, “Histone demethylase inhibitors” (CELGENE QUANTICEL RESEARCH, INC., priority 2013, dated 2020).

What follows are compounds tested against T1, Jarid1A (Homo sapiens, UniProt P29375) (assay: Jarid1A in vitro enzyme inhibition assay (TR-FRET)).
T1 construct: purchased BPS Bioscience 50110
T1 sequence (P29375 1-1090): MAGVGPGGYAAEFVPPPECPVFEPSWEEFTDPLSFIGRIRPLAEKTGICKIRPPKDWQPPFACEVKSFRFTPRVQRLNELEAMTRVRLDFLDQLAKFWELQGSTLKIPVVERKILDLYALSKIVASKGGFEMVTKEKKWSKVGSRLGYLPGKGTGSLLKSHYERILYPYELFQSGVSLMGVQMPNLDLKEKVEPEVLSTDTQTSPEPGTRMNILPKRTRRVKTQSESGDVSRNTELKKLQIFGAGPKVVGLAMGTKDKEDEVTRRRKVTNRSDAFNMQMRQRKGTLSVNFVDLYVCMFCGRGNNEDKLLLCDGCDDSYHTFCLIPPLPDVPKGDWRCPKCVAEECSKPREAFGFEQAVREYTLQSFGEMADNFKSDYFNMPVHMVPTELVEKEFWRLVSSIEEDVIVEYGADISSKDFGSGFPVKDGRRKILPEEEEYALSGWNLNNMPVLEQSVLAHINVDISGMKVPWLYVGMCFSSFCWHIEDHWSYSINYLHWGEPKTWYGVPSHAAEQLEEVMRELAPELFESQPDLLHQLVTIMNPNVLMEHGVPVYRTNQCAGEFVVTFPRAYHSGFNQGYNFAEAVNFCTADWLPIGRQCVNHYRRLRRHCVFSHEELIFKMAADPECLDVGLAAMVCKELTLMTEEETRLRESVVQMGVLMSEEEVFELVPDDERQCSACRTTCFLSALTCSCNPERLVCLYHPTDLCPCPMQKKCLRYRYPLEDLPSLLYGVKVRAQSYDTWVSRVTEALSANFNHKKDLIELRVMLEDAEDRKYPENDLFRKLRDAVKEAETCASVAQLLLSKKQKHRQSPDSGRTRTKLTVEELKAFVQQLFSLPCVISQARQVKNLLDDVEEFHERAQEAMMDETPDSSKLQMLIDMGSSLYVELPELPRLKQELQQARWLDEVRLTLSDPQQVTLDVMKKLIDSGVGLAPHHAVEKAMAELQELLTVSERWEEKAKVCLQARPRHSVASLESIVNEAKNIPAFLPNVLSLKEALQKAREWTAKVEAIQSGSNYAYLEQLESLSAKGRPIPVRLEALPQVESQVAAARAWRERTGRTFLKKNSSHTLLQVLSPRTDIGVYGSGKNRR
Type: biochemical
Excerpt: This assay determines the ability of a test compound to inhibit Jarid1A, Jarid1B, and JMJD2C demethylase activity. Baculovirus expressed Jarid1A (GenBank Accession #NM_001042603, AA1-1090) was purchased from BPS Bioscience (Cat#50110). Baculovirus expressed Jarid1B (GenBank Accession #NM_006618, AA 2-751) was purchased from BPS Bioscience (Cat #50121) or custom made by MolecularThroughput. Baculovirus expressed JMJD2C (GenBank Accession #BC143571, AA 2-372) was purchased from BPS Bioscience (Cat#50105).
The enzymatic assay of Jarid1A activity is based upon Time Resolved-Fluorescence Resonance Energy Transfer (TR-FRET) detection. The ability of test compounds to inhibit the activity of Jarid1A was determined in 384-well plate format under the following reaction conditions: 1 nM Jarid1A, 300 nM H3K4me3-biotin labeled peptide (Anaspec cat #64357), 2 μM alpha-ketoglutaric acid in assay buffer of 50 mM HEPES, pH7.3, 0.005% Brij35, 0.5 mM TCEP, 0.2 mg/ml BSA, 50 μM sodium L-ascorbate, and 2 μM ammonium iron(II) sulfate. Reaction product was determined quantitatively by TR-FRET after the addition of detection reagent Phycolink Streptavidin-allophycocyanin (Prozyme) and Europium-anti-mono-or di-methylated histone H3 lysine 4 (H3K4me1-2) antibody (PerkinElmer) in the presence of 5 mM EDTA in LANCE detection buffer (PerkinElmer) at a final concentration of 25 nM and 1 nM, respectively.
The assay reaction was initiated by the following: 2 μl of the mixture of 900 nM H3K4me3-biotin labeled peptide and 6 μM alpha-ketoglutaric acid with 2 μl of 11-point serial diluted inhibitor in 3% DMSO was added to each well of plate, followed by the addition of 2 μl of 3 nM Jarid1A to initiate the reaction. The reaction mixture was incubated at room temperature for 30 minutes, and terminated by the addition of 6 μl of 5 mM EDTA in LANCE detection buffer containing 50 nM Phycolink Streptavidin-allophycocyanin and 2 nM Europium-anti-H3K4me1-2 antibody. Plates were read by EnVisionMultilabel Reader in TR-FRET mode (excitation at 320 nm, emission at 615 nm and 665 nm) after 1 hour incubation at room temperature. A ratio was calculated (665/615) for each well and fitted to determine inhibition constant (IC50).

Row | SMILES | IC50 [nM]
1 | Cn1cnc(-c2nccc3c(O)nc(OCCC4CC4)nc23)c1 [Example 78, 2-(2-cyclopropylethoxy)-8-(1-methylimidazol-4-yl)pyrido[3,4-d]pyrimidin-4-ol] | ≤ 100
2 | Cn1cnc(-c2nccc3c(O)nc(Oc4cnn(Cc5ccccc5)c4)nc23)c1 [Example 79, 2-(1-benzylpyrazol-4-yl)oxy-8-(1-methylimidazol-4-yl)pyrido[3,4-d]pyrimidin-4-ol] | ≤ 100
3 | CC(C)CCn1cc(Oc2nc(O)c3ccnc(-c4cn(C)cn4)c3n2)cn1 [Example 80, 2-[1-(3-methylbutyl)pyrazol-4-yl]oxy-8-(1-methylimidazol-4-yl)pyrido[3,4-d]pyrimidin-4-ol] | ≤ 100
4 | Cn1cnc(-c2nccc3c(O)nc(Oc4ccc(F)c(F)c4)nc23)c1 [Example 81, 2-(3,4-difluorophenoxy)-8-(1-methylimidazol-4-yl)pyrido[3,4-d]pyrimidin-4-ol] | ≤ 100
5 | COCCOc1ccc(Oc2nc(O)c3ccnc(-c4cn(C)cn4)c3n2)cc1 [Example 82, 2-[4-(2-methoxyethoxy)phenoxy]-8-(1-methylimidazol-4-yl)pyrido[3,4-d]pyrimidin-4-ol] | ≤ 100
6 | Cn1cnc(-c2nccc3c(O)nc(Oc4ccc5cnn(C)c5c4)nc23)c1 [Example 83, 8-(1-methylimidazol-4-yl)-2-(1-methylindazol-6-yl)oxypyrido[3,4-d]pyrimidin-4-ol] | ≤ 100
7 | CCn1ncc2ccc(Oc3nc(O)c4ccnc(-c5cn(C)cn5)c4n3)cc21 [Example 84, 2-(1-ethylindazol-6-yl)oxy-8-(1-methylimidazol-4-yl)pyrido[3,4-d]pyrimidin-4-ol] | ≤ 100
8 | Cc1nn(C)c2cc(Oc3nc(O)c4ccnc(-c5cn(C)cn5)c4n3)ccc12 [Example 85, 2-(1,3-dimethylindazol-6-yl)oxy-8-(1-methylimidazol-4-yl)pyrido[3,4-d]pyrimidin-4-ol] | ≤ 100
9 | CC(=O)N1CCC(n2cc(Oc3nc(O)c4ccncc4n3)cn2)CC1 [Example 90, 1-[4-[4-(4-hydroxypyrido[3,4-d]pyrimidin-2-yl)oxypyrazol-1-yl]piperidin-1-yl]ethanone] | ≤ 100
10 | C=CC(=O)N1CCC(n2cc(Oc3nc(O)c4ccncc4n3)cn2)CC1 [Example 91, 1-[4-[4-(4-hydroxypyrido[3,4-d]pyrimidin-2-yl)oxypyrazol-1-yl]piperidin-1-yl]prop-2-en-1-one] | ≤ 100
11 | O=C(C1CC1)N1CCC(n2cc(Oc3nc(O)c4ccncc4n3)cn2)CC1 [Example 92, cyclopropyl-[4-[4-(4-hydroxypyrido[3,4-d]pyrimidin-2-yl)oxypyrazol-1-yl]piperidin-1-yl]methanone] | ≤ 100
12 | O=C(c1ccc(F)cc1)N1CCC(n2cc(Oc3nc(O)c4ccncc4n3)cn2)CC1 [Example 93, (4-fluorophenyl)-[4-[4-(4-hydroxypyrido[3,4-d]pyrimidin-2-yl)oxypyrazol-1-yl]piperidin-1-yl]methanone] | ≤ 100
13 | O=S(=O)(C1CC1)N1CCC(n2cc(Oc3nc(O)c4ccncc4n3)cn2)CC1 [Example 94, 2-[1-(1-cyclopropylsulfonylpiperidin-4-yl)pyrazol-4-yl]oxypyrido[3,4-d]pyrimidin-4-ol] | ≤ 100
14 | O=S(=O)(c1ccccc1)N1CCC(n2cc(Oc3nc(O)c4ccncc4n3)cn2)CC1 [Example 95, 2-[1-[1-(benzenesulfonyl)piperidin-4-yl]pyrazol-4-yl]oxypyrido[3,4-d]pyrimidin-4-ol] | ≤ 100
15 | Oc1nc(Oc2ccnc(N3CCNCC3)c2)nc2cnccc12 [Example 96, 2-(2-piperazin-1-ylpyridin-4-yl)oxypyrido[3,4-d]pyrimidin-4-ol] | ≤ 100
16 | Oc1nc(Oc2ccnc(N3CCOCC3)c2)nc2cnccc12 [Example 97, 2-(2-morpholin-4-ylpyridin-4-yl)oxypyrido[3,4-d]pyrimidin-4-ol] | ≤ 100
17 | Cn1cnc(-c2nccc3c(O)nc(OCC(C)(C)O)nc23)c1 [Example 98, 2-(2-hydroxy-2-methylpropoxy)-8-(1-methylimidazol-4-yl)pyrido[3,4-d]pyrimidin-4-ol] | 100 to 1000
18 | CC(c1ccccc1)n1cc(Oc2nc(O)c3ccncc3n2)cn1 (stereo not shown) [Example 99] | ≤ 100
19 | Cn1cnc(-c2nccc3c(O)nc(Oc4cnn(C5CCOCC5)c4)nc23)c1 [Example 100, 8-(1-methylimidazol-4-yl)-2-[1-(oxan-4-yl)pyrazol-4-yl]oxypyrido[3,4-d]pyrimidin-4-ol] | ≤ 100
20 | Cn1cnc(-c2nccc3c(O)nc(OCc4ccccc4)nc23)c1 [Example 101, 8-(1-methylimidazol-4-yl)-2-phenylmethoxypyrido[3,4-d]pyrimidin-4-ol] | ≤ 100
21 | Cn1cnc(-c2nccc3c(O)nc(OCC4CCOCC4)nc23)c1 [Example 102, 8-(1-methyl-1H-imidazol-4-yl)-2-(oxan-4-ylmethoxy)pyrido[3,4-d]pyrimidin-4-ol] | 100 to 1000
22 | Cn1cnc(-c2nccc3c(O)nc(OCC4CCOC4)nc23)c1 (stereo not shown) [Example 103, 8-(1-methyl-1H-imidazol-4-yl)-2-(oxolan-3-ylmethoxy)pyrido[3,4-d]pyrimidin-4-ol] | 100 to 1000
23 | Cn1cnc(-c2nccc3c(O)nc(OCc4cccc(F)c4)nc23)c1 [Example 104, 2-[(3-fluorophenyl)methoxy]-8-(1-methyl-1H-imidazol-4-yl)pyrido[3,4-d]pyrimidin-4-ol] | 100 to 1000
24 | Cn1cnc(-c2nccc3c(O)nc(OCc4ccccc4Cl)nc23)c1 [Example 105, 2-[(2-chlorophenyl)methoxy]-8-(1-methyl-1H-imidazol-4-yl)pyrido[3,4-d]pyrimidin-4-ol] | 1000 to 10000
25 | Cn1cnc(-c2nccc3c(O)nc(OCc4cccc(Cl)c4Cl)nc23)c1 [Example 106, 2-[(2,3-dichlorophenyl)methoxy]-8-(1-methyl-1H-imidazol-4-yl)pyrido[3,4-d]pyrimidin-4-ol] | 1000 to 10000
